Results reported in US20220289753A1, “SHP2 INHIBITORS” (IRBM S.P.A., priority 2019, published 2022).

Legend:
[1] = biological target: T1, SHP-2 enzyme (Met1-Leu525) (Homo sapiens, UniProt Q06124); experiment: SHP2 inhibition enzymatic assay (DiFMUP substrate, IRS1 peptide activation); type: biochemical; conditions: SHP2 wt; activated by 500 nM IRS1 peptide; 75 μM DiFMUP substrate
T1 construct: synthetized by Origene, Met1-Leu525, cat #TP750155; purchased Origene TP750155
T1 sequence (Q06124 1-525): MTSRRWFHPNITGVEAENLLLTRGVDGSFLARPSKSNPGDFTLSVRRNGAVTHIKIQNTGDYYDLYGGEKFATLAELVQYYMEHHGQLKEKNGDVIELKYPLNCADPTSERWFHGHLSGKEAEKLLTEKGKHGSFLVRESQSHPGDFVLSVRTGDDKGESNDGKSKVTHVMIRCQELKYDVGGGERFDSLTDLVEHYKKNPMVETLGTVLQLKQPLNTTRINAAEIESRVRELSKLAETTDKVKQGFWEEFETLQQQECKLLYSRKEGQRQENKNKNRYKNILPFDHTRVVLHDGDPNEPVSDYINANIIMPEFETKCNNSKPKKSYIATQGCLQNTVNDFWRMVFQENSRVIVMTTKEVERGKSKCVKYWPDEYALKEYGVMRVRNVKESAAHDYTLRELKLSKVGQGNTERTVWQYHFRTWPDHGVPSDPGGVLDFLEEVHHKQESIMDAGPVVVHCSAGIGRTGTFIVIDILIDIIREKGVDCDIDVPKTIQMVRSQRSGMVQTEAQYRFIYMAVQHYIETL
Summary of the method: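 SHP-2 (Met1-Leu525, 0.5 nM final) preincubated 30 min with compounds and IRS1 activating peptide in HEPES pH 7.2 buffer with NaCl, KCl, EDTA, tween-20, 5 mM DTT. DiFMUP then added for 30 min at room temperature and fluorescence read. IC50 from four-parameter logistic fit of % inhibition.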

[2] = test system: ERK phosphorylation in KYSE-520 cells; experiment: Phospho-ERK cellular assay (Advanced phospho-ERK1/2 (Thr202/Tyr204) TR-FRET kit); type: cell-based; conditions: Homo sapiens, KYSE-520, 2 h, KYSE-520 cells, 2 h at 37° C., TR-FRET; read-out: pERK IC50
Summary of the method: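 IC50 values are inflection points of four-parameter logistic fits of percent activity against compound dilution. Compound exposure lasted 2 h at 37° C in KYSE-520 cells. Lysates were probed overnight with Eu-cryptate/d2 antibodies to ERK1/2 phosphorylated at Thr202/Tyr204, so reduced TR-FRET indicates SHP2 inhibition.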

`N#Cc1c(Sc2cnc3[nH]c(N4CCC5(CC4)Cc4ccccc4[C@H]5N)nc3n2)ccnc1N` [Example 215, (S)-2-amino-4-((2-(1-amino-1,3-dihydrospiro[indene-2,4′-piperidin]-1′-yl)-1H-imidazo[4,5-b]pyrazin-5-yl)thio)nicotinonitrile] showed an IC50 [1] of under 500 nM and an IC50 [2] of under 1000 nM.

`N[C@@H]1c2ccccc2CC12CCN(c1nc3nc(Sc4cccc5[nH]c(=O)cnc45)cnc3[nH]1)CC2` [Example 216, (S)-5-((2-(1-amino-1,3-dihydrospiro[indene-2,4′-piperidin]-1′-yl)-1H-imidazo[4,5-b]pyrazin-5-yl)thio)quinoxalin-2(1H)-one] showed an IC50 [1] of under 500 nM and an IC50 [2] of under 1000 nM.

`N#Cc1ncccc1Sc1cnc2[nH]c(N3CCC4(CC3)Cc3ccccc3[C@H]4N)nc2n1` [Example 217, (S)-3-((2-(1-amino-1,3-dihydrospiro[indene-2,4′-piperidin]-1′-yl)-1H-imidazo[4,5-b]pyrazin-5-yl)thio)picolinonitrile] showed an IC50 [1] of under 500 nM and an IC50 [2] of under 1000 nM.

`N[C@@H]1c2ccccc2CC12CCN(c1nc3nc(Sc4ccnc5cccc(F)c45)cnc3[nH]1)CC2` [Example 218, (S)-1′-(5-((5-fluoroquinolin-4-yl)thio)-1H-imidazo[4,5-b]pyrazin-2-yl)-1,3-dihydrospiro[indene-2,4′-piperidin]-1-amine] gave an IC50 [1] of under 500 nM and an IC50 [2] of under 1000 nM.

Molecule `Nc1nccc(Sc2cnc3[nH]c(N4CCC5(CC4)Cc4ccc(Br)cc4[C@H]5N)nc3n2)c1Cl` [Example 219, (S)-1′-(5-((2-amino-3-chloropyridin-4-yl)thio)-1H-imidazo[4,5-b]pyrazin-2-yl)-6-bromo-1,3-dihydrospiro[indene-2,4′-piperidin]-1-amine] has an IC50 [1] of under 500 nM and an IC50 [2] of under 1000 nM.

In the case of `COc1ccc2nccc(Sc3cnc4[nH]c(N5CCC6(CC5)Cc5ccccc5[C@H]6N)nc4n3)c2n1` [Example 220, (S)-1′-(5-((6-methoxy-1,5-naphthyridin-4-yl)thio)-1H-imidazo[4,5-b]pyrazin-2-yl)-1,3-dihydrospiro[indene-2,4′-piperidin]-1-amine], the IC50 [1] is reported as under 500 nM and the IC50 [2] is reported as 1000 to 5000 nM.

With `N[C@@H]1c2ccccc2CC12CCN(c1nc3nc(Sc4cnc5ccccn5c4=O)cnc3[nH]1)CC2` [Example 221, (S)-3-((2-(1-amino-1,3-dihydrospiro[indene-2,4′-piperidin]-1′-yl)-1H-imidazo[4,5-b]pyrazin-5-yl)thio)-4H-pyrido[1,2-a]pyrimidin-4-one] the IC50 [1] was 500 to 3000 nM and the IC50 [2] was 1000 to 5000 nM.

Molecule `Nc1nccc(Sc2cnc3[nH]c(N4CCC5(CC4)Cc4ccccc4[C@H]5N)nc3n2)c1F` [Example 222, (S)-1′-(5-((2-amino-3-fluoropyridin-4-yl)thio)-1H-imidazo[4,5-b]pyrazin-2-yl)-1,3-dihydrospiro[indene-2,4′-piperidin]-1-amine] has an IC50 [1] of under 500 nM and an IC50 [2] of over 5000 nM.

Molecule `Nc1nccc(Sc2cnc3[nH]c(N4CCC5(CC4)Cc4ccc(N6CCOCC6)cc4[C@H]5N)nc3n2)c1Cl` [Example 223, (S)-1′-(5-((2-amino-3-chloropyridin-4-yl)thio)-1H-imidazo[4,5-b]pyrazin-2-yl)-6-morpholino-1,3-dihydrospiro[indene-2,4′-piperidin]-1-amine] has an IC50 [1] of under 500 nM and an IC50 [2] of over 5000 nM.

With `CNC(=O)c1ncccc1Sc1cnc2[nH]c(N3CCC4(CC3)Cc3ccccc3[C@H]4N)nc2n1` [Example 224, (S)-3-((2-(1-amino-1,3-dihydrospiro[indene-2,4′-piperidin]-1′-yl)-1H-imidazo[4,5-b]pyrazin-5-yl)thio)-N-methylpicolinamide] the IC50 [1] was under 500 nM and the IC50 [2] was over 5000 nM.

`N[C@@H]1c2ccccc2CC12CCN(c1nc3nc(Sc4cccnc4N4CCCC4)cnc3[nH]1)CC2` [Example 225, (S)-1′-(5-((2-(pyrrolidin-1-yl)pyridin-3-yl)thio)-1H-imidazo[4,5-b]pyrazin-2-yl)-1,3-dihydrospiro[indene-2,4′-piperidin]-1-amine] gave an IC50 [1] of under 500 nM and an IC50 [2] of over 5000 nM.

`N[C@@H]1c2ccccc2CC12CCN(c1nc3nc(Sc4ccncc4OC(F)(F)F)cnc3[nH]1)CC2` [Example 226, (S)-1′-(5-((3-(trifluoromethoxy)pyridin-4-yl)thio)-1H-imidazo[4,5-b]pyrazin-2-yl)-1,3-dihydrospiro[indene-2,4′-piperidin]-1-amine] gave an IC50 [1] of under 500 nM and an IC50 [2] of under 1000 nM.

In the case of `Cc1nc(COc2cnccc2Sc2cnc3[nH]c(N4CCC5(CC4)Cc4ccccc4[C@H]5N)nc3n2)co1` [Example 227, (S)-1′-(5-((3-((2-methyloxazol-4-yl)methoxy)pyridin-4-yl)thio)-1H-imidazo[4,5-b]pyrazin-2-yl)-1,3-dihydrospiro[indene-2,4′-piperidin]-1-amine], the IC50 [1] is reported as under 500 nM and the IC50 [2] is reported as over 5000 nM.

`COc1nccc(Sc2cnc3[nH]c(N4CCC5(CC4)Cc4ccc(Br)cc4[C@H]5N)nc3n2)c1Cl` [Example 228, (S)-6-bromo-1′-(5-((3-chloro-2-methoxypyridin-4-yl)thio)-1H-imidazo[4,5-b]pyrazin-2-yl)-1,3-dihydrospiro[indene-2,4′-piperidin]-1-amine] showed an IC50 [1] of under 500 nM and an IC50 [2] of over 5000 nM.

With `Nc1nccc(Sc2cnc3[nH]c(N4CCC5(CC4)Cc4ncc(F)cc4[C@@H]5N)nc3n2)c1Cl` [Example 229, (R)-1′-(5-((2-amino-3-chloropyridin-4-yl)thio)-1H-imidazo[4,5-b]pyrazin-2-yl)-3-fluoro-5,7-dihydrospiro[cyclopenta[b]pyridine-6,4′-piperidin]-5-amine] the IC50 [1] was under 500 nM and the IC50 [2] was over 5000 nM.

`Nc1nccc(Sc2cnc3[nH]c(N4CCC5(CC4)Cc4ncc(F)cc4[C@H]5N)nc3n2)c1Cl` [Example 230, (S)-1′-(5-((2-amino-3-chloropyridin-4-yl)thio)-1H-imidazo[4,5-b]pyrazin-2-yl)-3-fluoro-5,7-dihydrospiro[cyclopenta[b]pyridine-6,4′-piperidin]-5-amine] was tested, and the IC50 [1] was under 500 nM and the IC50 [2] was 1000 to 5000 nM.

Work on `COc1ncccc1Sc1cnc2[nH]c(N3CCC4(CC3)Cc3ccc(Br)cc3[C@H]4N)nc2n1` [Example 231, (S)-6-bromo-1′-(5-((2-methoxypyridin-3-yl)thio)-1H-imidazo[4,5-b]pyrazin-2-yl)-1,3-dihydrospiro[indene-2,4′-piperidin]-1-amine] yielded an IC50 [1] of under 500 nM and an IC50 [2] of under 1000 nM.

Molecule `N[C@@H]1c2ccccc2CC12CCN(c1nc3nc(Sc4ccnc5[nH]ccc45)cnc3[nH]1)CC2` [Example 232, (S)-1′-(5-((1H-pyrrolo[2,3-b]pyridin-4-yl)thio)-1H-imidazo[4,5-b]pyrazin-2-yl)-1,3-dihydrospiro[indene-2,4′-piperidin]-1-amine] has an IC50 [1] of under 500 nM and an IC50 [2] of under 1000 nM.

With `Cn1cc2c(n1)CC1(CCN(c3nc4nc(Sc5ccnc(N)c5Cl)cnc4[nH]3)CC1)C2N` (stereo not drawn) [Example 233, 1′-(5-((2-amino-3-chloropyridin-4-yl)thio)-1H-imidazo[4,5-b]pyrazin-2-yl)-2-methyl-2,6-dihydro-4H-spiro[cyclopenta[c]pyrazole-5,4′-piperidin]-4-amine] the IC50 [1] was under 500 nM and the IC50 [2] was under 1000 nM.

In the case of `N[C@@H]1c2ccccc2CC12CCN(c1nc3nc(Sc4ccn[nH]c4=O)cnc3[nH]1)CC2` [Example 234, (S)-4-((2-(1-amino-1,3-dihydrospiro[indene-2,4′-piperidin]-1′-yl)-1H-imidazo[4,5-b]pyrazin-5-yl)thio)pyridazin-3(2H)-one], the IC50 [1] is reported as under 500 nM and the IC50 [2] is reported as under 1000 nM.

`N[C@@H]1c2ccccc2CC12CCN(c1nc3nc(Sc4cccnc4OCc4ncco4)cnc3[nH]1)CC2` [Example 235, (S)-1′-(5-((2-(oxazol-2-ylmethoxy)pyridin-3-yl)thio)-1H-imidazo[4,5-b]pyrazin-2-yl)-1,3-dihydrospiro[indene-2,4′-piperidin]-1-amine] was tested, and the IC50 [1] was under 500 nM and the IC50 [2] was 1000 to 5000 nM.

With `COc1nnccc1Sc1cnc2[nH]c(N3CCC4(CC3)Cc3ccccc3[C@H]4N)nc2n1` [Example 236, (S)-1′-(5-((3-methoxypyridazin-4-yl)thio)-1H-imidazo[4,5-b]pyrazin-2-yl)-1,3-dihydrospiro[indene-2,4′-piperidin]-1-amine] the IC50 [1] was 500 to 3000 nM and the IC50 [2] was over 5000 nM.

`COc1ccncc1Sc1cnc2[nH]c(N3CCC4(CC3)Cc3ccccc3[C@H]4N)nc2n1` [Example 237, (S)-1′-(5-((4-methoxypyridin-3-yl)thio)-1H-imidazo[4,5-b]pyrazin-2-yl)-1,3-dihydrospiro[indene-2,4′-piperidin]-1-amine] was tested, and the IC50 [1] was under 500 nM and the IC50 [2] was over 5000 nM.

With `N[C@@H]1c2ccccc2CC12CCN(c1nc3nc(Sc4ccc[nH]c4=O)cnc3[nH]1)CC2` [Example 238, (S)-3-((2-(1-amino-1,3-dihydrospiro[indene-2,4′-piperidin]-1′-yl)-1H-imidazo[4,5-b]pyrazin-5-yl)thio)pyridin-2(1H)-one] the IC50 [1] was under 500 nM and the IC50 [2] was over 5000 nM.
